Columns and labels:
DNA [1] = assay: Binding affinity to calf thymus DNA at 1 uM in BPES buffer by fluorescence titration relative to daunomycin; assay type: nucleic-acid assay; settings: Bos taurus
DNA [2] = assay: Binding affinity to calf thymus DNA in BPES buffer assessed as binding constant K/10^5 by fluorescence titration; assay type: nucleic-acid assay; settings: Bos taurus

COc1cccc2c1C(=O)c1c(O)c3c(c(O)c1C2=O)C[C@@](O)(C(=O)CO)C[C@@H]3O[C@H]1C[C@H](N)[C@H](O)[C@H](C)O1
fold change (FC) (DNA [1]): 2
K (DNA [2]): 605000 M⁻¹

COc1cccc2c1C(=O)c1c(O)c3c(c(O)c1C2=O)C[C@@](O)(C(C)=O)C[C@@H]3O[C@H]1C[C@H](N)[C@H](O)[C@H](C)O1
K (DNA [2]): 230000 M⁻¹

From ChEMBL document CHEMBL1140110, “Hydration of drug-DNA complexes: greater water uptake for adriamycin compared to daunomycin” (J Med Chem, 2008)
